These results are taken from ChEMBL document CHEMBL5543125, “Discovery of 2,3-Dihydro[1,4]dioxino[2,3-g]benzofuran Derivatives as Protease Activated Receptor 4 (PAR4) Antagonists with Potent Antiplatelet Aggregation Activity and Low Bleeding Tendency” (J Med Chem, 2024).

Activity calls are given as the source filed them. No cut-off for these calls is given here.

The test system of data set [1] is Platelet. Description: Inhibition of platelet aggregation in human platelet rich plasma at 20 uM preincubated for 5 mins followed by aggregation inducer addition and measured after 5 mins by light transmission aggregometry relative to control. The format is functional. The conditions noted are these: 10 min.
Data set [2] addresses T1, Proteinase-activated receptor 4 (Homo sapiens) (UniProt Q96RI0).
T1 sequence (whole entry): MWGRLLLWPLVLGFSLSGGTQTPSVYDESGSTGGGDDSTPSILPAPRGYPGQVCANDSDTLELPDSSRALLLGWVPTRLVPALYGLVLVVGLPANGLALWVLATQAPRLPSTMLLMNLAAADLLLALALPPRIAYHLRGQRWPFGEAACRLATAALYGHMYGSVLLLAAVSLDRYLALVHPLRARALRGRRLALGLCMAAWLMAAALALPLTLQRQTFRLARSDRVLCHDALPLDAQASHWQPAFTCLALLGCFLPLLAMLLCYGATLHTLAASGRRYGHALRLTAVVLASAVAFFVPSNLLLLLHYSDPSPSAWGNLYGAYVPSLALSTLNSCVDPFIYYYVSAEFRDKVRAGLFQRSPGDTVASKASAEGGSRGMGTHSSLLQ
Description: Antagonist activity at PAR4 in human filtered plasma assessed as inhibition of PAR4-activated peptide AYPGPK-NH2 induced platelet aggregation at 10 nM preincubated for 5 mins followed by aggregation inducer addition and measured after 5 mins by light transmission aggregometry relative to control. The format is functional, cell-free. The conditions noted are these: filed as antagonist, time 10.0 min.

Data set [3] deals with T2, Proteinase-activated receptor 1 (Homo sapiens) (UniProt P25116).
T2 sequence (whole entry): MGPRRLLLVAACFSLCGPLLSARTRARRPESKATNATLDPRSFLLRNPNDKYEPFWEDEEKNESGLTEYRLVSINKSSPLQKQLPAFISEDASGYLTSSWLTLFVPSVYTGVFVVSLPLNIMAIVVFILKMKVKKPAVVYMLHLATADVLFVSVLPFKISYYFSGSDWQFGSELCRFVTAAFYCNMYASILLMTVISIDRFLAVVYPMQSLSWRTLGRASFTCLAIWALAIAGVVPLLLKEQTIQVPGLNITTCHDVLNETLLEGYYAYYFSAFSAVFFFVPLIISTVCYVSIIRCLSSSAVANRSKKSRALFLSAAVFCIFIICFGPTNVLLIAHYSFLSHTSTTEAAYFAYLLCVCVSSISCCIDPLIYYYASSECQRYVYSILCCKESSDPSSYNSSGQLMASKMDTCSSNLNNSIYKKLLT
Briefly: Antagonist activity at PAR1 in human plasma assessed as inhibition of PAR1-activated peptide SFLLRNPNDKY induced platelet aggregation at 20 nM to 1 uM preincubated for 5 mins followed by aggregation inducer addition and measured after 5 mins by light transmission aggregometry. The format is functional, cell-free. Particulars: dose 20-1000 nM, time 10.0 min.

Data set [4] concerns Platelet. Briefly: Inhibition of platelet aggregation in human platelet rich plasma preincubated for 5 mins followed by aggregation inducer addition and measured after 5 mins by light transmission aggregometry. The format is functional, cell-based.
Data set [5] can be described thus: Metabolic stability in human liver microsomes assessed as half life at 1 uM preincubated for 1 hr followed by NADPH addition and measured upto 60 mins by LC-MS/MS analysis. The conditions noted are these: time < 120 min. The format is ADME, Microsome.
Data set [6] has as its target T2, Proteinase-activated receptor 1 (Homo sapiens). Briefly: Antagonist activity at PAR1 in human plasma assessed as inhibition of PAR1-activated peptide SFLLRNPNDKY induced platelet aggregation upto 9 uM preincubated for 5 mins followed by aggregation inducer addition and measured after 5 mins by light transmission aggregometry. The format is functional, cell-free. The conditions noted are these: time 10.0 min.

Data set [7] has as its system Platelet. Description: Antagonist activity at P2Y1/P2Y12 in human plasma assessed as inhibition of ADP-induced platelet aggregation at 20 nM to 1 uM preincubated for 5 mins followed by aggregation inducer addition and measured after 5 mins by light transmission aggregometry. The format is cell-free. The conditions noted are these: dose 20-1000 nM, time 10.0 min.
Data set [8] has as its target T1, Proteinase-activated receptor 4 (Homo sapiens). Description: Antagonist activity at PAR4 in human plasma assessed as inhibition of PAR4-activated peptide AYPGPK-NH2 induced platelet aggregation by measuring residual aggregation rate at 20 nM to 1 uM preincubated for 5 mins followed by aggregation inducer addition and measured after 5 mins by light transmission aggregometry relative to control. The conditions noted are these: filed as antagonist, dose 20-1000 nM, time 10.0 min. The format is functional, cell-free.

The subject of data set [9] is Platelet. Description: Antiplatelet aggregation activity in human plasma assessed as inhibition of thrombin induced platelet aggregation by measuring residual aggregation rate at 20 nM to 1 uM preincubated for 5 mins followed by aggregation inducer addition and measured after 5 mins by light transmission aggregometry relative to control. The conditions noted are these: dose 20-1000 nM, time 10 min, at 20 to 1000 nM. The format is functional.

The nature of data set [10]: Oral bioavailability in Sprague-Dawley rat at 50 mg/kg. The format is ADME, organism-based. The conditions noted are these: in vivo.
Data set [11] has as its system Platelet. Briefly: Antagonist activity at GPIB/vWF in human plasma assessed as inhibition of ristocetin-induced platelet aggregation at 20 nM to 1 uM preincubated for 5 mins followed by aggregation inducer addition and measured after 5 mins by light transmission aggregometry. The format is cell-free. The conditions noted are these: dose 20-1000 nM, time 10.0 min.

For data set [12], the target named is T3, Thromboxane A2 receptor (Homo sapiens) (UniProt P21731).
T3 sequence (whole entry): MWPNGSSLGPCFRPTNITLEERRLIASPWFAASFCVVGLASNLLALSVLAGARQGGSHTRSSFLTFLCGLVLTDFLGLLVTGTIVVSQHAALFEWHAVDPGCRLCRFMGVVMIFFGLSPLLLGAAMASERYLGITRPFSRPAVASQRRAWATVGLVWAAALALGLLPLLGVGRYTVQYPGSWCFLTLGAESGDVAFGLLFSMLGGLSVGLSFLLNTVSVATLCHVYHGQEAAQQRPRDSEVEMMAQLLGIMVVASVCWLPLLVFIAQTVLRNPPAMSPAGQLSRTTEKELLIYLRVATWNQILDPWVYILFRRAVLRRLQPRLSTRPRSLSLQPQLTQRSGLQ
Briefly: Antagonist activity at thromboxane A2 receptor in human plasma assessed as inhibition of U46619-induced platelet aggregation at 20 nM to 1 uM preincubated for 5 mins followed by aggregation inducer addition and measured after 5 mins by light transmission aggregometry. The format is functional, cell-free. The conditions noted are these: dose 20-1000 nM, time 10.0 min.

Data set [13] has as its target T4, Platelet glycoprotein VI (Homo sapiens) (UniProt Q9HCN6).
T4 sequence (whole entry): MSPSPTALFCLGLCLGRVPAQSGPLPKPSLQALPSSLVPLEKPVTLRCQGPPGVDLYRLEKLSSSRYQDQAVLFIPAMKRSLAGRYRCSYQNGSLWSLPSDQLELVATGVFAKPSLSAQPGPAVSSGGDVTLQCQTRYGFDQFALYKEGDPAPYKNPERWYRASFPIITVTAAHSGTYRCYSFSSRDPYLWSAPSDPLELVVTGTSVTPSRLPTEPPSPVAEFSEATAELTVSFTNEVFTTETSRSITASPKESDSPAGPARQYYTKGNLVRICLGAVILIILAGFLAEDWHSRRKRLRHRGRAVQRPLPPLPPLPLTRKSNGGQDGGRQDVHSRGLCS
Description: Antagonist activity at GPVI in human plasma assessed as inhibition of collagen-induced platelet aggregation at 20 nM to 1 uM preincubated for 5 mins followed by aggregation inducer addition and measured after 5 mins by light transmission aggregometry. The format is cell-free. The conditions noted are these: dose 20-1000 nM, time 10.0 min.

The target of data set [14] is T1, Proteinase-activated receptor 4 (Homo sapiens). Briefly: Antagonist activity at PAR4 in human filtered plasma assessed as inhibition of PAR4-activated peptide AYPGPK-NH2 induced platelet aggregation at 3 nM preincubated for 5 mins followed by aggregation inducer addition and measured after 5 mins by light transmission aggregometry. The format is functional, cell-free. Particulars: filed as antagonist, time 10.0 min.

Turning to `COc1nn2cc(-c3cc4ccc5c(c4o3)OCCO5)nc2s1`, testing at 20 µM with Platelet [1] gave an inhibition of 90.5%. Also, the inhibition (as a rule, the percentage by which the read-out fell short of the control) in data set [2] is 100%. Besides, the outcome (in data set [3]; in data set [6]; in the data set on Platelet [7]; in the data set with Platelet [11]; in [12]; in data set [13]) was inactive. For the same compound, the IC50 (commonly the concentration at which inhibition is half-maximal) in the data set on Platelet [4] came to 3.2 nM. For the same compound, in data set [5], the half-life (as a rule, the time in which the quantity being followed falls by half) at 1 µM came out at 12.2 min. Also, the Activity (in data set [8]; in the data set with Platelet [9]) was less than 30% in each case. The bioavailability (in general, dose-corrected exposure relative to a reference, in per cent) in data set [10] was 0.94%. Further, the outcome in data set [14] was Active.
